Results taken from patent US20150023972A1, “COMBINATION PHARMACEUTICAL COMPOSITION AND METHODS OF TREATING AND PREVENTING THE INFECTIOUS DISEASES” (priority 2010, published 2015).
Read-outs that look alike come from different tables or passages of the source. Marks after values point to notes of the source that are not given here.

Experiments:
[1] = tested on: influenza; test: open-label comparative controlled clinical study versus Tamiflu in influenza; assay type: in vivo, human
[2] = tested on: influenza virus A/California/07/2009swl (H1N1); assay type: in vivo, mice; conditions: 10th day after infection; for Survival, % 10LD50: female Balb/c mice, intragastric
[3] = tested on: influenza virus A/California/07/2009swl (H1N1); assay type: in vivo, mice; conditions: 10th day after infection; for Survival, % 10LD50: female Balb/c mice, intragastric; remark: listed apart in the source
[4] = Morning Day 1, 37.0° C. and lower

CCOC(=O)C1=C[C@@H](OC(CC)CC)[C@H](NC(C)=O)[C@@H](N)C1 [Oseltamivir]
Mean values of body temperature, M ± SD ([1]; Evening Day 2): 36.9 ± 0.53 °C
Proportion of patients with normal temperature, % ([1]; Evening Day 2): 45.5%
The number of patients with normal temperature ([1]; Evening Day 2): 5
Mean values of body temperature, M ± SD ([1]; Evening, Day 1): 37.3 ± 0.71 °C
Proportion of patients with normal temperature, % ([1]; Evening, Day 1): 9.1%
The number of patients with normal temperature ([1]; Evening, Day 1): 1
Mean values of body temperature, M ± SD ([1]; Evening, Day 3): 36.7 ± 0.46 °C
Proportion of patients with normal temperature, % ([1]; Evening, Day 3): 54.5%
The number of patients with normal temperature ([1]; Evening, Day 3): 6
Mean values of body temperature, M ± SD ([1]; Evening, Day 4): 36.5 ± 0.38 °C
Proportion of patients with normal temperature, % ([1]; Evening, Day 4): 80.0%
The number of patients with normal temperature ([1]; Evening, Day 4): 8
Mean values of body temperature, M ± SD ([1]; Evening, Day 5): 36.5 ± 0.21 °C
Proportion of patients with normal temperature, % ([1]; Evening, Day 5): 90.0%
The number of patients with normal temperature ([1]; Evening, Day 5): 9
Mean values of body temperature, M ± SD ([1]; Evening, Day 6): 36.3 ± 0.19 °C
Proportion of patients with normal temperature, % ([1]; Evening, Day 6): 100.0%
The number of patients with normal temperature ([1]; Evening, Day 6): 7
Mean values of body temperature, M ± SD ([1]; Evening, Day 7): 36.6 ± 0.12 °C
Proportion of patients with normal temperature, % ([1]; Evening, Day 7): 100.0%
The number of patients with normal temperature ([1]; Evening, Day 7): 4
Mean values of body temperature, M ± SD ([1]; Morning Day 1): 38.1 ± 0.82 °C
Proportion of patients with normal temperature, % [1, 4]: 0%
The number of patients with normal temperature [1, 4]: 0
Mean values of body temperature, M ± SD ([1]; Morning Day 2): 37.3 ± 0.72 °C
Proportion of patients with normal temperature, % ([1]; Morning Day 2): 36.4%
The number of patients with normal temperature ([1]; Morning Day 2): 4
Mean values of body temperature, M ± SD ([1]; Morning Day 3): 36.9 ± 0.47 °C
Proportion of patients with normal temperature, % ([1]; Morning Day 3): 45.5%
The number of patients with normal temperature ([1]; Morning Day 3): 5
Mean values of body temperature, M ± SD ([1]; Morning Day 4): 36.8 ± 0.37 °C
Proportion of patients with normal temperature, % ([1]; Morning Day 4): 90.9%
The number of patients with normal temperature ([1]; Morning Day 4): 10
Mean values of body temperature, M ± SD ([1]; Morning Day 5): 36.7 ± 0.25 °C
Proportion of patients with normal temperature, % ([1]; Morning Day 5): 90.0%
The number of patients with normal temperature ([1]; Morning Day 5): 9
Mean values of body temperature, M ± SD ([1]; Morning Day 6): 36.6 ± 0.21 °C
Proportion of patients with normal temperature, % ([1]; Morning Day 6): 100.0%
The number of patients with normal temperature ([1]; Morning Day 6): 9
Mean values of body temperature, M ± SD ([1]; Morning Day 7): 36.5 ± 0.10 °C
Proportion of patients with normal temperature, % ([1]; Morning Day 7): 100.0%
The number of patients with normal temperature ([1]; Morning Day 7): 5
Mean values of body temperature, M ± SD ([1]; Morning Day 8): 36.5 ± 0.14 °C
Proportion of patients with normal temperature, % ([1]; Morning Day 8): 100.0%
The number of patients with normal temperature ([1]; Morning Day 8): 3
mean number of antipyretic intakes ([1]; by the morning of Day 4 of the therapy): 7.4±0.90
Bacterial complications, Otitis, % ([1]; influenza): 0/0%
Bacterial complications, Pneumonia, % ([1]; influenza): 9.1%
Bacterial complications, Total, % ([1]; influenza): 27.2%
Bacterial complications, Tracheitis, % ([1]; influenza): 18.2%
Difference between % of survival in the group that received medication and % of survival in the group that received distilled water ([2]; stage 1): +60%
Survival, % 10LD50 ([2]; stage 1): 80* %
Difference between % of survival in the group that received medication and % of survival in the group that received distilled water ([2]; stage 2): +65%
Survival, % 10LD50 ([2]; stage 2): 70* %
Difference between % of survival in the group that received medication and % of survival in the group that received distilled water ([3]; stage 1): +60%
Survival, % 10LD50 ([3]; stage 1): 80* %
Difference between % of survival in the group that received medication and % of survival in the group that received distilled water ([3]; stage 2): +65%
Survival, % 10LD50 ([3]; stage 2): 70* %
